Measured values reported in US10294212B2 (CURADEV PHARMA PRIVATE LTD., priority 2013, dated 2019).
Where a name gives a salt, the structure may show the parent alone.

How the values were obtained:
[1] = molecular target: Human indoleamine 2,3-dioxygenase1 (hIDO1) (Homo sapiens (Human), UniProt P14902); assay: In-vitro IDO1 enzyme assay (conversion of L-tryptophan to KYN); type: biochemical; conditions: read-out: IC50 (IDO1) Enz
From the text: Human indoleamine 2,3-dioxygenasel (hIDO1) catalyzes the oxidative cleavage of the pyrrole ring of the indole nucleus of tryptophan to yield N-formylkynurenine which can be converted to kynurenine (KYN) by deformylation. hIDO1 with an N-terminal His tag, expressed and purified from E. coli cells was procured from either Enzo LifeScienccs, NY, USA). Unless otherwise stated, all materials were procured from Sigma Aldrich, Mo., USA.
The assay monitoring the conversion of L-tryptophan to KYN was carried out as follows. hIDO1 (10 nM) was incubated with tryptophan (30 μM) in the presence of ascorbic acid (20 mM), methylene blue (10 μM) and catalase (100 μg/mL) in potassium phosphate buffer (50 mM; pH 6.5) at 37C for 30 min. The reaction was terminated with 30% trichloroacetic acid (TCA) and further incubated at 65C for 15 min to fully convert N-formylkynurenine to KYN. The reaction mixture was then centrifuged to remove sediments and the KYN in the supernatant was estimated by UV-visible absorption spectroscopy at 360 nm using a Waters HPLC system fitted with a C-18 column or by LC/MS/MS. See, Sono, 1980, J. Biol. Chem., 255:1339-1345, which is herein incorporated by reference.
(§1) Percent inhibition at each concentration of test compounds was determined by estimating the decrease in KYN with reference to the reaction control with 1% DMSO vehicle. Data were analyzed using nonlinear regression to generate IC50 values using Graph Pad Prism® 5.

IDO1 in HeLa cells = IDO1 in HeLa cells (Homo sapiens (Human), UniProt P14902); assay: HeLa cell based IDO1 assay (IFNγ-induced, KYN in supernatant)
Protocol: HeLa cells were obtained from ATCC and maintained in DMEM supplemented with sodium bicarbonate (2.1 g/L), HEPES (4.1 g/L), L-glutamine (2 mM), non-essential amino acid (84 mg/L) and fetal bovine serum (10% FBS) and maintained at 95% humidity and 5% CO2 in a 37° C. incubator. Unless otherwise stated, all materials were procured from Sigma. Upon incubation with gamma-interferon (IFNγ ), HeLa cells express IDO1, which catalyzes the formation of N-formyl kynurenine from tryptophan present in growth medium. The assay was performed as follows:
Cells were plated in medium (300 μL) at a density of 0.1 million per well of a 48 well plate and hIDO1 was induced by overnight treatment with IFNγ (50 ng/mL) (Peprotech, USA). The following day, cells were washed to remove IFNγ and were incubated with specific concentrations of test compounds (typically 10 μM to 1 nM, final volume 300 μL) in Hanks Balanced Salt Solution (HBSS) containing 80 μM L-tryptophan. Following incubation, supernatant (150 μL) was transferred to a 96 well plate into which 30%TCA (304) was added and the contents further incubated at 65° C. for 15 min to fully convert N-formylkynurenine to kynurenine. The reaction mixture was then centrifuged to remove sediments and the KYN in the supernatant was estimated by UV-visible absorption spectroscopy at 360 nm using a Waters HPLC system fitted with a C-18 column. (Xiangdong Liu et al. Blood 2010, Vol-117, 3520-30; Sono described above).
as §1

[2] = molecular target: Human TDO (hTDO)-transfected CHO-K1 cells (Homo sapiens (Human), UniProt P48775); assay: CHO-K1 cell based TDO assay; conditions: hTDO cellular assay
Protocol: Human TDO (hTDO)-transfected CHO-K1 cells were used to identify test compounds that inhibit TDO activity and reduce Kynurenine production. CHO-K1 cells (ATCC) were cultured in DMEM supplemented with sodium bicarbonate (2.1 g/L), HEPES (4.1 g/L), L-glutamine (2 mM), non-essential amino acid (84 mg/L) and fetal bovine serum (10%) and maintained at 95% humidity and 5% CO2 in a 37° C. incubator. The TDO gene (TDO2) (Accession number NM_005651.1) was purchased from Origene (USA) and stably expressed in CHO-Kl cells using the expression vector pcDNA4/Myc-HisB Hygro (Life Technologies, USA). TDO-expressing clones were identified based on the kynurenine production by the cells. Expanded clones were used for assay as described below. Unless otherwise stated, all materials were procured from Sigma.
hTDO transfected CHO-K1 cells (0.05 million/well) were seeded in a 96-well plate and maintained overnight in DMEM containing 10% FBS (200 μL) at 95% humidity and 5% CO2 in a 37° C. incubator. The following day, cells were washed and incubated with test compounds (typically 31 μM to 10 nM, final volume 150 μL) in Hanks Balanced Salt Solution (HBSS) containing 80 μM L-tryptophan for 2 hours. Supernatant (150 μL) from the cells was treated with 30% TCA ([…]) to precipitate proteins. Supernatants were further incubated at 65° C. for 15 min to convert N-formylkynurenine to kynurenine. KYN in the supernatant was measured by LC/MS/MS using an API4000 mass spectrometer (Applied Biosystems) coupled to a Shimadzu Prominence LC system fitted with a C18 column.
Percent inhibition of the test compounds was determined by measuring the decrease in KYN as compared to the reaction control (DMSO vehicle). IC50 values were calculated using Graph Pad Prism® 5 as described above.

Chain of IDO1 in HeLa cells (P14902 whole entry): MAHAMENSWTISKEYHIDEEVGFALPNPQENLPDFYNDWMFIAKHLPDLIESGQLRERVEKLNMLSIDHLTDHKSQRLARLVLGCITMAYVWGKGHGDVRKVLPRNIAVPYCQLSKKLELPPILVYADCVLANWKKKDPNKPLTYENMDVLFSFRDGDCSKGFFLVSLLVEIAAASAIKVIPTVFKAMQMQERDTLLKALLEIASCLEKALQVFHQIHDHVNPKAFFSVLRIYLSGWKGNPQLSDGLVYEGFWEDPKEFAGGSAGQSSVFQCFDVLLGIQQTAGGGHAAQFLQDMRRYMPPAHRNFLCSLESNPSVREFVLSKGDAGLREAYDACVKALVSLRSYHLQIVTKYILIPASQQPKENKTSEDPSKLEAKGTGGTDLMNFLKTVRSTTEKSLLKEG
Chain of Human indoleamine 2,3-dioxygenase1 (hIDO1) (P14902 whole entry): as above
Chain of Human TDO (hTDO)-transfected CHO-K1 cells (P48775 whole entry): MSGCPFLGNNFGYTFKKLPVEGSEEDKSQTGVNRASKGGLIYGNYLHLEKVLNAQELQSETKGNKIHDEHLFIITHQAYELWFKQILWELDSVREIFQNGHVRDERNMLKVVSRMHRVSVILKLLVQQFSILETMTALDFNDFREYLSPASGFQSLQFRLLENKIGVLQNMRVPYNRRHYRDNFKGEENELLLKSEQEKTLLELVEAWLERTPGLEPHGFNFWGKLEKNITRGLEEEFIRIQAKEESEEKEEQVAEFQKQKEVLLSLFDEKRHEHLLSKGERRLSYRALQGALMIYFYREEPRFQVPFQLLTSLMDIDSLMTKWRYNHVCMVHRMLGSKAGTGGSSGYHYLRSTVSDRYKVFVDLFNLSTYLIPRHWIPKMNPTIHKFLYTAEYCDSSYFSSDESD

## C#Cc1cc(Nc2c(N)oc3c(-c4ccccc4)nccc23)ccc1F [Compound 110, N^3-(3-Ethynyl-4-fluorophenyl)-7-phenylfuro[2,3-c]pyridine-2,3-diamine]
[1]
  IC50: < 200 nM
IDO1 in HeLa cells
  IC50: < 200 nM
[2]
  IC50: 500 to 2000 nM

## Cc1cc(-c2nccc3c(Nc4cc(Cl)ccc4F)c(N)oc23)ccn1 [Compound 263, N^3-(5-Chloro-2-fluorophenyl)-7-(2-methylpyridin-4-yl)furo[2,3-c]pyridine-2,3-diamine]
[1]
  IC50: < 200 nM
IDO1 in HeLa cells
  IC50: < 200 nM
[2]
  IC50: > 2000 nM

## Nc1oc2cnccc2c1Nc1cc(Cl)c(F)cc1F [Compound 51, N^3-(5-Chloro-2,4-difluorophenyl)furo[2,3-c]pyridine-2,3-diamine]
[1]
  IC50: > 1000 nM
IDO1 in HeLa cells
  IC50: < 200 nM
[2]
  IC50: > 2000 nM

## Cc1cc(-c2nc(F)cc3c(Nc4ccc(F)c(F)c4)c(N)oc23)ccn1 [Compound 246, N^3-(3,4-Difluorophenyl)-5-fluoro-7-(2-methylpyridin-4-yl)furo[2,3-c]pyridine-2,3-diamine]
[1]
  IC50: < 200 nM
IDO1 in HeLa cells
  IC50: < 200 nM
[2]
  IC50: 500 to 2000 nM

## NC(=O)c1ccc(-c2nccc3c(Nc4ccc(F)c(Cl)c4)c(N)oc23)cc1 [Compound 151, 4-(2-Amino-3-((3-chloro-4-fluorophenyl)amino)furo[2,3-c]pyridin-7-yl)benzamide]
[1]
  IC50: < 200 nM
IDO1 in HeLa cells
  IC50: < 200 nM
[2]
  IC50: 500 to 2000 nM

## COCCNC(=O)c1ccc(-c2nccc3c(Nc4ccc(F)c(Cl)c4)c(N)oc23)cc1 [Compound 169, 4-(2-Amino-3-((3-chloro-4-fluorophenyl)amino)furo[2,3-c]pyridin-7-yl)-N-(2-methoxyethyl)benzamide]
[1]
  IC50: < 200 nM
IDO1 in HeLa cells
  IC50: < 200 nM

## Nc1sc2c(-c3ccccc3)cccc2c1Nc1ccc(F)c(Cl)c1 [Compound 233, N^3-(3-Chloro-4-fluorophenyl)-7-phenylbenzo[b]thiophene-2,3-diamine]
[1]
  IC50: < 200 nM
IDO1 in HeLa cells
  IC50: < 200 nM
[2]
  IC50: > 2000 nM

## C#Cc1cccc(Nc2c(N)sc3ccccc23)c1 [Compound 137, N^3-(3-Ethynylphenyl)-1-benzothiophene-2,3-diamine]
[1]
  IC50: 200 to 1000 nM
IDO1 in HeLa cells
  IC50: < 200 nM
[2]
  IC50: > 2000 nM

## N#Cc1nccc2c(Nc3cc(F)cc(F)c3)c(N)oc12 [Compound 186, 2-Amino-3-((3,5-difluorophenyl)amino)furo[2,3-c]pyridine-7-carbonitrile]
[1]
  IC50: > 1000 nM
IDO1 in HeLa cells
  IC50: > 1000 nM
[2]
  IC50: 500 to 2000 nM

## Nc1oc2c(-c3ccc(F)c(F)c3)nccc2c1Nc1ccc(F)c(Cl)c1 [Compound 170, N^3-(3-chloro-4-fluorophenyl)-7-(3,4-difluorophenyl)furo[2,3-c]pyridine-2,3-diamine]
[1]
  IC50: < 200 nM
IDO1 in HeLa cells
  IC50: < 200 nM

## N#Cc1nccc2c(Nc3ccc(F)c(Cl)c3)c(N)oc12 [Compound 103, 2-Amino-3-((3-chloro-4-fluorophenyl)amino)furo[2,3-c]pyridine-7-carbonitrile]
[1]
  IC50: < 200 nM
IDO1 in HeLa cells
  IC50: < 200 nM
[2]
  IC50: < 500 nM

## Nc1oc2c(-c3ccnc(C(=O)Nc4ccccc4)c3)nccc2c1Nc1ccc(F)c(Cl)c1 [Compound 249, 4-(2-Amino-3-((3-chloro-4-fluorophenyl)amino)furo[2,3-c]pyridin-7-yl)-N-phenylpicolinamide]
[1]
  IC50: < 200 nM
IDO1 in HeLa cells
  IC50: 200 to 1000 nM
[2]
  IC50: > 2000 nM

## CC(C)CNC(=O)c1cc(-c2nccc3c(Nc4ccc(F)c(Cl)c4)c(N)oc23)ccn1 [Compound 252, 4-(2-Amino-3-((3-chloro-4-fluorophenyl)amino)furo[2,3-c]pyridin-7-yl)-N-isobutylpicolinamide]
[1]
  IC50: < 200 nM
IDO1 in HeLa cells
  IC50: < 200 nM
[2]
  IC50: > 2000 nM

## COc1cc2c(Nc3ccc(F)c(Cl)c3)c(N)oc2cn1 [Compound 64, N^3-(3-Chloro-4-fluoro-phenyl)-5-methoxy-furo[2,3-c]pyridine-2,3-diamine]
[1]
  IC50: < 200 nM
IDO1 in HeLa cells
  IC50: < 200 nM
[2]
  IC50: 500 to 2000 nM

## CCc1cc(-c2nccc3c(Nc4ccc(F)c(Cl)c4)c(N)oc23)ccn1 [Compound 262, N^3-(3-Chloro-4-fluorophenyl)-7-(2-ethylpyridin-4-yl)furo[2,3-c]pyridine-2,3-diamine]
[1]
  IC50: < 200 nM
IDO1 in HeLa cells
  IC50: < 200 nM
[2]
  IC50: 500 to 2000 nM

## Nc1oc2c(-c3ccnc(N4CCOCC4)c3)nccc2c1Nc1ccc(F)c(Cl)c1 [Compound 154, N^3-(3-Chloro-4-fluorophenyl)-7-(2-morpholinopyridin-4-yl)furo[2,3-c]pyridine-2,3-diamine]
[1]
  IC50: < 200 nM
IDO1 in HeLa cells
  IC50: < 200 nM
[2]
  IC50: > 2000 nM

## CCc1ccccc1Nc1c(N)sc2ccccc12 [Compound 232, N^3-(2-Ethylphenyl)benzo[b]thiophene-2,3-diamine hydrochloride]
[1]
  IC50: > 1000 nM
IDO1 in HeLa cells
  IC50: > 1000 nM
[2]
  IC50: > 2000 nM

## CNC(=O)c1cc(-c2nccc3c(Nc4ccc(F)cc4)c(N)oc23)ccn1 [Compound 224, 4-(2-Amino-3-((4-fluorophenyl)amino)furo[2,3-c]pyridin-7-yl)-N-methylpicolinamide]
[1]
  IC50: < 200 nM
IDO1 in HeLa cells
  IC50: < 200 nM
[2]
  IC50: < 500 nM

## COc1ccc(-c2nccc3c(Nc4ccc(F)c(Cl)c4)c(N)oc23)cc1 [Compound 101, N^3-(3-Chloro-4-fluorophenyl)-7-(4-methoxyphenyl)furo[2,3-c]pyridine-2,3-diamine]
[1]
  IC50: < 200 nM
IDO1 in HeLa cells
  IC50: < 200 nM

## Nc1oc2c(-c3ccc(Cl)cc3)nccc2c1Nc1ccc(F)c(Cl)c1 [Compound 91, N^3-(3-Chloro-4-fluorophenyl)-7-(4-chlorophenyl)furo[2,3-c]pyridine-2,3-diamine]
[1]
  IC50: < 200 nM
IDO1 in HeLa cells
  IC50: < 200 nM

## N#Cc1ccc(-c2cccc3c(Nc4ccc(F)c(Cl)c4)c(N)sc23)cc1 [Compound 212, 4-(2-Amino-3-((3-chloro-4-fluorophenyl)amino)benzo[b]thiophen-7-yl)benzonitrile]
[1]
  IC50: < 200 nM
IDO1 in HeLa cells
  IC50: < 200 nM

## N#Cc1ccc2c(Nc3ccc(F)c(Cl)c3)c(N)oc2c1 [Compound 112, 2-Amino-3-((3-chloro-4-fluorophenyl)amino)benzofuran-6-carbonitrile]
[1]
  IC50: < 200 nM
IDO1 in HeLa cells
  IC50: < 200 nM

## Cc1cccc(Nc2c(N)oc3cnccc23)c1 [Compound 48, N^3-(m-tolyl)Furo[2,3-c]pyridine-2,3-diamine]
[1]
  IC50: < 200 nM
IDO1 in HeLa cells
  IC50: < 200 nM

## Nc1oc2c(Cc3ccccc3)nccc2c1Nc1ccc(F)c(Cl)c1 [Compound 86, 7-Benzyl-N^3-(3-chloro-4-fluorophenyl)furo[2,3-c]pyridine-2,3-diamine]
[1]
  IC50: < 200 nM
IDO1 in HeLa cells
  IC50: < 200 nM

## C#Cc1cccc(Nc2c(N)oc3c(-c4ccccc4)nccc23)c1 [Compound 92, N^3-(3-Ethynylphenyl)-7-phenylfuro[2,3-c]pyridine-2,3-diamine]
[1]
  IC50: < 200 nM
IDO1 in HeLa cells
  IC50: < 200 nM
